Data published in patent US10538518B2, “Processes for preparing an FGFR inhibitor” (Principia Biopharma, Inc., priority 2015, dated 2020).

Legend:
Type in all cases: physicochemical
[1] = Exposure to elevated relative humidity, form checked by XRPD; details: 93% relative humidity, four days, ambient temperature
Procedure: XRPD patterns were obtained with a PANalytical X′Pert PRO MPD diffractometer using an incident beam of Cu radiation (1.54059 angstroms) produced using an Optix long, fine-focus source. The diffractometer was configured using the symmetric Bragg-Brentano geometry. Prior to analysis, a silicon sample (NIST SRM 640e) was analyzed to verify the observed position of the Si 111 peak was consistent with the NIST-certified position. A specimen of the sample was prepared as a thin, circular layer centered on a silicon zero-background substrate. Antiscatter slits (SS) were used to minimize the background generated by air. Soller slits for the incident and diffracted beams were used to minimize broadening fro axial divergence. Diffraction patterns were collected using a scanning position-sensitive detector located 240 mm from the sample.

[2] = Thermogravimetric analysis (TGA); details: up to 200° C.
Procedure: Thermal Gravimetric Analysis
Thermal Gravimetric Analysis (TGA) was performed using a TA Instruments Discovery thermographic analyzer, with temperature calibration being performed using nickel and Alumel™. Each sample was placed in a pan, hermetically sealed, the lid pierced, and then inserted into the thermal gravimetric furnace which was heated under nitrogen.

[3] = Dynamic vapor sorption/desorption (DVS) isotherm
Procedure: Dynamic Vapor Sorption/Desorption (DVS)
Dynamic Vapor Sorption/Desorption (DVS) data was collected on a VTI SGA-100 Vapor Sorption Analyzer, using NaCl and PVP as calibration standards. Samples were not dried prior to analysis. Sorption and desorption data were collected over a range from 5% to 95% relative humidity (RH) at 10% RH increments under a nitrogen purge. The equilibrium criterion used for analysis was less than 0.01000% weight change in 5 minutes with a maximum equilibration time of 3 hours. Data were not corrected for the initial moisture content of the samples.

- weight loss (TGA) [2]: ≤ 0.20%
- phase change after DVS testing, by XRPD analysis ([3]; sample evaluated after exposure to humidity in the DVS testing): a phase change did not occur
- hygroscopicity (DVS: weight gain in each sorption cycle, hysteresis upon desorption) ([3]; sorption/desorption 5% to 95% RH): not hygroscopic
- weight percent change (DVS isotherm) ([3]; up to a percent relative humidity of about 95% (94.79%)): ≤ 0.31 wt %
SMILES: C=CC(=O)N1CCN(CCCn2c(=O)c(-c3c(Cl)c(OC)cc(OC)c3Cl)cc3cnc(NC)nc32)CC1 [Form 1, 6-(2,6-dichloro-3,5-dimethoxyphenyl)-2-(methylamino)-8-[3-[4-(prop-2-enoyl)piperazin-1-yl]propyl]-7H,8H-pyrido[2,3-d]pyrimidin-7-one]
- change in form observable by XRPD (physical stability at elevated humidity) [1]: did not result in any changes in form observable by XRPD
